According to patent publication US20170145005A1, “KINASE INHIBITOR” (THE UNIVERSITY OF TOKYO, priority 2014, published 2017):

What was measured:
PIM-3 kinase = PIM-3 kinase (Homo sapiens, UniProt Q86V86); test: Measurement of PIM-3 kinase inhibitory activity (fluorescent substrate peptide, capillary electrophoresis); type: biochemical; conditions: 30 μM ATP, 2 hours at room temperature
Protocol: 1.5 μM of fluorescent substrate peptide (FAM-AKRRRLSSLRA-COOH), 30 μM of ATP, and 0.0833 ng/μL of PIM-3 kinase were incubated with a compound for 2 hours at room temperature, and the Pim-3 kinase activity was measured. The reaction was quantified by separating the substrate and phosphorylation reaction product by capillary electrophoresis (using a Perkin-Elmer EZ reader II) based on the difference in their charges. The results are shown below in Tables 1 and 2.

MiaPaca-2 [1] = test: Growth inhibitory activity on human pancreatic cancer cell lines (Example 2, WST-8); type: cell-based; conditions: Homo sapiens, MIA PaCa-2; cultured for 96 hours, 2000 cells/well
Protocol: (§1) Two thousand cells of human pancreatic cancer cells lines (L3.6pl, MiaPaca-2, PANC-1, PCI35, PCI66) were seeded in a medium volume of 100 μL in each well of a 96-well microtiter plate. The medium was removed after 18 hours, and 100 μL/well of medium containing the test compound was added. Culture was continued for 72 or 96 hours. The medium containing the test compound was removed, and 100 μL/well of medium containing 10% WST-8 (Dojindo Laboratories Cell Counting kit-8) was added. After culturing for one hour, the OD 450 nm absorbance was measured, and the cell growth inhibitory activity was calculated. Furthermore, RPMI-1640 medium (Sigma) was used as the medium with 10% fetal calf serum (Invitrogen), 50 U/mL penicillin G (Sigma), and 50 μg/mL streptomycin (Sigma) added. The cell lines were cultured at 37° C. in a carbon dioxide incubator with a carbon dioxide concentration of 5%.
(§2) Tables 3 and 4 show the results of compound evaluation when cultured for 96 hours.

PCI35 [2] = test: as above; type: cell-based; conditions: cultured for 96 hours, 2000 cells/well
Protocol: as §1, §2

PCI66 [3] = test: as above; type: cell-based; conditions: cultured for 96 hours, 2000 cells/well
Protocol: as §1, §2

PCI66 cells = test: Animal study: subcutaneous PCI66 tumor in nude mice; type: in vivo, BALB/c nu/nu mice; conditions: 30 mg/kg intraperitoneal, once a day for five days then two days off, three cycles, from day 14 after tumor injection
Protocol: PCI66 cells, which are human pancreatic cancer cells, were suspended in Hanks balanced salt solution in a concentration of 2×10^7 cells/mL, and 100 μL of the cell suspension was injected subcutaneously to the backs of BALB/c nu/nu mice (SLC, Shizuoka, Japan). Drug administration was begun 14 days after tumor injection. The drug was administered once a day for five days intraperitoneally, then withheld for two days. This cycle was repeated three times. The tumor volume was calculated by the following formula.
Tumor volume(cm^3)=[maximum diameter](cm)×[minimum diameter]^2(cm)/2

L3.6pl = test: Growth inhibitory activity on human pancreatic cancer cell lines (Example 4, WST-8); type: cell-based; conditions: Example 4: 72 hours, 3000 cells/well
Protocol: (§3) Three thousand cells of human pancreatic cancer cell lines (L3.6pl, MiaPaca-2, PANC-1, PCI35, and PCI66) were seeded in a medium volume of 90 μL in each well of a 96-well microtiter plate. After 24 hours, 10 μL/well of medium containing the test compound was added. Culture was continued for 72 hours, and 10 μL/well of WST-8 (Dojindo Laboratories Cell Counting kit-8) was added. After culturing for 2 hours, the OD 450 nm absorbance was measured, and the cell growth inhibitory effect was calculated. The cell lines were cultured in a carbon dioxide incubator with a carbon dioxide concentration of 5%.

MiaPaca-2 [4] = test: as above; type: cell-based; conditions: MIA PaCa-2, Example 4: 72 hours, 3000 cells/well
Protocol: as §3

PANC-1 = test: as above; type: cell-based; conditions: Example 4: 72 hours, 3000 cells/well
Protocol: as §3

PCI35 [5] = test: as above; type: cell-based; conditions: Example 4: 72 hours, 3000 cells/well
Protocol: as §3

PCI66 [6] = test: as above; type: cell-based; conditions: Example 4: 72 hours, 3000 cells/well
Protocol: as §3

SMILES | IC50 (PIM-3 kinase) | IC50 (MiaPaca-2 [1]) | IC50 (PCI35 [2]) | IC50 (PCI66 [3]) | tumor volume (PCI66 cells) | IC50 (L3.6pl) | IC50 (MiaPaca-2 [4]) | IC50 (PANC-1) | IC50 (PCI35 [5]) | IC50 (PCI66 [6])
COc1ccc2c(c1C(C)N1CCNCC1)O/C(=C\c1n[nH]c3ncccc13)C2=O (centres unmarked) [Compound 6, (Z)-2-[(1H-pyrazolo[3,4-b]pyridin-3-yl)methylene]-6-methoxy-7-[1-(piperazin-1-yl)ethyl]benzofuran-3(2H)-one] | 7.6 nM | 1600 nM | 1800 nM | 1800 nM | suppress an increase in tumor volume |  |  |  |  | 
CCOc1ccc2c(c1C(C)N1CCNCC1)O/C(=C\c1n[nH]c3ncccc13)C2=O (centres unmarked) [Compound 22, (Z)-2-[(1H-pyrazolo[3,4-b]pyridin-3-yl)methylene]-6-ethoxy-7-[1-(piperazin-1-yl)ethyl]benzofuran-3(2H)-one] | 1.3 nM |  |  |  |  | 2800 nM | 1300 nM | 2700 nM | 1800 nM | 2500 nM
